The CheMixHub viscosity set
Where “and” joins values, the source holds several entries; their conditions need not be identical. Equal values may be shown once.

Assay: xn = mol fraction of the nth substance listed

O=C(O)CC(O)(CC(=O)O)C(=O)O + CC(O)CO
101.3 kPa, x1 = 0.333
Conditions	viscosity [mPa·s]
298 K	2188
323 K	571

CC(Cl)(Cl)Cl + C1CCCCC1
303.15 K, 101 kPa
Conditions	viscosity [mPa·s]
x1 = 0.157	0.7897
x1 = 0.2218	0.776
x1 = 0.2876	0.7624
x1 = 0.3722	0.7462
x1 = 0.4768	0.7297
x1 = 0.543	0.7219
x1 = 0.679	0.713
x1 = 0.7525	0.7123
x1 = 0.8597	0.716
x1 = 0.9403	0.7201

CC(Cl)(Cl)Cl + CCCO
298.15 K, 101 kPa
Conditions	viscosity [mPa·s]
x1 = 0.0572	1.789
x1 = 0.1154	1.667
x1 = 0.193	1.506
x1 = 0.3007	1.318
x1 = 0.3956	1.165
x1 = 0.49	1.045
x1 = 0.6367	0.909
x1 = 0.7983	0.824
x1 = 0.8861	0.799

CC(Cl)(Cl)Cl + C1CCOC1
303.15 K, 101 kPa
Conditions	viscosity [mPa·s]
x2 = 0.0731	0.7289
x2 = 0.1213	0.7262
x2 = 0.2262	0.7112
x2 = 0.3894	0.6687
x2 = 0.4716	0.6424
x2 = 0.5677	0.6104
x2 = 0.6475	0.5834
x2 = 0.7415	0.5513
x2 = 0.8139	0.5271
x2 = 0.866	0.51

NS(=O)(=O)c1cc(C(=O)O)c(NCc2ccco2)cc1Cl + O
viscosity, 101 kPa
Conditions	293.15 K	298.15 K	303.15 K	308.15 K	313.15 K
x1 = 2e-05	1.009 mPa·s	0.8969 mPa·s and 0.8925 mPa·s	0.8057 mPa·s and 0.8013 mPa·s	0.7295 mPa·s and 0.7245 mPa·s	0.6618 mPa·s and 0.6566 mPa·s
x1 = 9e-05	1.017 mPa·s and 1.02 mPa·s	0.9018 mPa·s and 0.9048 mPa·s	0.81 mPa·s and 0.8104 mPa·s	0.7336 mPa·s and 0.7368 mPa·s	0.6659 mPa·s
x1 = 0.0002	1.022 mPa·s and 1.018 mPa·s	0.9069 mPa·s and 0.9052 mPa·s	0.8174 mPa·s and 0.8126 mPa·s	0.7401 mPa·s and 0.7333 mPa·s	0.6718 mPa·s and 0.6662 mPa·s

CC(Cl)(Cl)Cl + CCCCCCO
298.15 K, 101.33 kPa
Conditions	viscosity [mPa·s]
x1 = 0.101	3.824
x1 = 0.2	3.188
x1 = 0.301	2.631
x1 = 0.402	2.142
x1 = 0.502	1.744
x1 = 0.601	1.43
x1 = 0.701	1.188
x1 = 0.8	1.002

CC(Cl)(Cl)Cl + CCCCCC
303.15 K, 101 kPa
Conditions	viscosity [mPa·s]
x1 = 0.1033	0.3166
x1 = 0.2726	0.3777
x1 = 0.3375	0.4016
x1 = 0.4011	0.4253
x1 = 0.5547	0.4864
x1 = 0.5981	0.5047
x1 = 0.6578	0.5318
x1 = 0.7595	0.582
x1 = 0.8388	0.6246
x1 = 0.9378	0.6833

O=CO + C1COCO1
298.15 K, 101 kPa
Conditions	viscosity [mPa·s]
x2 = 0.0646	1.419
x2 = 0.1345	1.36
x2 = 0.2103	1.292
x2 = 0.2929	1.216
x2 = 0.3832	1.131
x2 = 0.4824	1.035
x2 = 0.5918	0.9302
x2 = 0.7131	0.8195
x2 = 0.8483	0.7018

CC(Cl)(Cl)Cl + c1ccccc1
303.15 K, 101 kPa
Conditions	viscosity [mPa·s]
x1 = 0.1318	0.5946
x1 = 0.2306	0.614
x1 = 0.3381	0.6341
x1 = 0.4104	0.6461
x1 = 0.4894	0.6588
x1 = 0.5844	0.6709
x1 = 0.6716	0.6831
x1 = 0.7484	0.6926
x1 = 0.8648	0.706
x1 = 0.9221	0.7138

O=CO + O=[N+]([O-])c1ccccc1
viscosity [mPa·s], 101 kPa
Conditions	x1 = 0.1791	x1 = 0.2956	x1 = 0.4132	x1 = 0.5229	x1 = 0.6396	x1 = 0.7402	x1 = 0.8361
298.15 K	1.676	1.636	1.604	1.591	1.593	1.592	1.576
323.15 K	1.114	1.084	1.054	1.043	1.025	1.029	1.005
